In EP0138995B1, “REGULATION OF ENZYMES WHICH UTILIZE TETRAHYDROBIOPTERIN OR TETRAHYDROFOLATE COFACTORS WITH 6, 6-DISUBSTITUTED-TETRAHYDROPTERIDINES” (South Alabama Medical Science Foundation, priority 1983, dated 1984):
≈ marks a conversion by molar mass, not a printed value. Where two headings read alike, the source gives them in different places.

Experiments:
[1] = molecular target: T1, phenylalanine hydroxylase (Rattus norvegicus, UniProt P04176); experiment: Inhibition of phenylalanine hydroxylase by dihydropterins; assay type: biochemical; conditions: concentrations up to 0.4 mM; 6,6-Me2PH4 as cofactor 0.05-0.3 mM
T1 construct: from tissue
T1 sequence (P04176 1-453): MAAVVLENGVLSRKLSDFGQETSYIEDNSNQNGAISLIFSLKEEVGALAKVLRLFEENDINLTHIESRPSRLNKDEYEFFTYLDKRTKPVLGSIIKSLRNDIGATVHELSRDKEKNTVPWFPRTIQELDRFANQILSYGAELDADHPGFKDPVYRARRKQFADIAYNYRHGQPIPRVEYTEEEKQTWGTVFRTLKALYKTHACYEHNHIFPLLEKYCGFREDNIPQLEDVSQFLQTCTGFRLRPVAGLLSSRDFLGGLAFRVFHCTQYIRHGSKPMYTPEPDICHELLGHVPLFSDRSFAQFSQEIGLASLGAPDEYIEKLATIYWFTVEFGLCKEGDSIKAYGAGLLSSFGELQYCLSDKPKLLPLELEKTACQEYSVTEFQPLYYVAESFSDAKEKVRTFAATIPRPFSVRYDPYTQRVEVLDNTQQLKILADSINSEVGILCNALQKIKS
Experimental: Measurements were made under standard assay conditions with cofactor concentration varied between 0.05 and 0.3 mM. Stock solutions of 6,6-Me₂PH₂ were in 0.1 M assay buffer.
Standard assay conditions, with 6-MePH₄ as cofactor over a range of 0.05 mM to 0.3 mM, were employed.

[2] = Non-enzymatic reduction of quinoid-6,6-Me2PH2 by physiological reducing agents; assay type: physicochemical; conditions: 0.1 M Tris·HCl, pH 7.4 at 37°
Experimental: Non-Enzymatic Reduction of Quinoid-6,6-Me₂PH₂ under Physiological Conditions. Aromatic amino acid hydroxylase cofactor analogs which are relatively stable in the quinoid-dihydro form may have therapeutic potential for treatment of dihydropteridine reductase deficiency. Thus, it was of interest to determine the rate at which quinoid is reduced to the tetrahydropterin by various physiological reducing agents. Rates were measured in 0.1 M Tris·HCl, pH 7.4 at 37°, from the decrease in absorbance at 340 nm. A reaction first order in each component was observed. With NADH, NADPH and absorbic acid, the rate of reduction (k=660 M⁻¹min⁻¹) was the same. The rate with cysteine was about four times slower (k=160 M⁻¹min⁻¹).

[3] = Stability (decay) of quinoid-6,6-Me2PH2 monitored spectrophotometrically; assay type: physicochemical
Experimental: Stability. The decay of q-6,6-Me₂PH₂ in a variety of environments was monitored spectrophotometrically. […] In water, a plateau of highest stability is observed near neutral pH. At pH 6.8, solutions kept on ice have a half-life greater than 100 hours. […] Loss of quinoid is somewhat increased in acid and greatly accelerated in base. […] This process is not affected by the presence of oxygen.

[4] = Spectrophotometric pKa determination of quinoid dihydropterin; assay type: physicochemical; conditions: sodium succinate buffer; transition between neutral and monocationic species; sodium succinate buffers, I=0.01, 25°C
Experimental: pKa. The pKa for the transition between the neutral and monocationic species of q-6,6-Me₂PH₂ was determined spectrophotometrically. A concentrated stock solution of quinoid, free of elemental bromine, in n-propanol was diluted to 0.1 mM into a series of sodium succinate buffers at constant ionic strength (I=0.01). Spectra, background corrected for each buffer individually, were acquired on a Perkin-Elmer 552 spectrophotometer thermostated to 25°C.

[5] = molecular target: T2, Beef Liver Dihydropteridine Reductase (Bos taurus, UniProt Q3T0Z7); experiment: Quinoid dihydropterin as substrate for dihydropteridine reductase (beef liver); assay type: biochemical
T2 construct: from tissue; host or cells: beef liver
T2 sequence (Q3T0Z7 1-242): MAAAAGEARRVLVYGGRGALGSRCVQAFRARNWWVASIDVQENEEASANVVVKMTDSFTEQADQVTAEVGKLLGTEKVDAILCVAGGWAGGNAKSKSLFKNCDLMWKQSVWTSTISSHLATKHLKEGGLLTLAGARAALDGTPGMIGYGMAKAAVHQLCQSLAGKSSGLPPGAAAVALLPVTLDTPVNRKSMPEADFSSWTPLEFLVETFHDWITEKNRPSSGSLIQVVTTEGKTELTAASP
Experimental: (§1) The quinoid was generated from 6,6-Me₂PH₄, as outlined previously. […] Peroxidase (6 units/ml final volume) was temperature equilibrated in 0.1 M Tris·HCl, pH 7.4, at 27° for 5 minutes. H₂O₂ (1.2 mM final concentration) was then added, followed by 6,6-Me₂PH₄. […] At 5 minutes, 6,6-Me₂PH₄ was introduced and monitored at 340 nm. […] Reaction was then initiated with dihydropteridine reductase (0.01 units/ml). Rates were calculated from the enzyme dependent decrease in O.D. at 340 nm, using an extinction coefficient of 9.8 for the chemically synthesized substrate and 6.2 for the peroxidase- and phenylalanine-hydroxylase-containing reactions in which the pterin is maintained in the quinoid form.

[6] = molecular target: T3, Sheep Liver Dihydropteridine Reductase (Ovis aries, UniProt A0ACI6QPJ5); experiment: Quinoid dihydropterin as substrate for dihydropteridine reductase (sheep liver); assay type: biochemical
T3 sequence (A0ACI6QPJ5 46-254): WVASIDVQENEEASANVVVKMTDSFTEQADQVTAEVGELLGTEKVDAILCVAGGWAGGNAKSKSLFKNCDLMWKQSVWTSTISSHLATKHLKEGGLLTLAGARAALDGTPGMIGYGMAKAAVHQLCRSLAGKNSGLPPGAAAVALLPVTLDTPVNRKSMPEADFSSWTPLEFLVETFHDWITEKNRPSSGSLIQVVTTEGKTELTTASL
Experimental: as §1, with “6,6-Me₂PH₄. Conversion to q-6,6-Me₂PH₂, monitored at 340 nm, was complete within a few seconds. • (iii) Generation by phenylalanine hydroxylase:” for “6,6-Me₂PH₄.”, “nm. Conversion of 6,6-Me₂PH₄ to quinoid dihydropterin was complete in 1-7 minutes, depending on the concentration.” for “nm.”, “form. […] This Km was obtained regardless of the method of generation of the quinoid dihydropterin. The Vmax's were also the same for the dihydropteridine reductase catalyzed reduction of quinoid generated by any of the three methods (Table VI). Thus, the quinoid products of each procedure appear to behave equally.” for “form.”

[7] = 2.75 mg (p.o.)/kg, one patient; cited from earlier work
[8] = orally 0.6 mg-1.25 mg/kg; cited from earlier work
[9] = tested on: striatal tyrosine hydroxylase; conditions: cited from earlier work
[10] = tested on: phenylalanine hydroxylase; conditions: cited from earlier work
[11] = Near-saturation concentration at neutral pH; assay type: physicochemical; conditions: organic solvent or mixture, in 0.5 M 2-mercaptoethanol, room temperature, read-out: concentration of an almost saturated solution
Experimental: 2-Amino-4-hydroxy-6-methyl-6-phenyl-5,6,7,8-tetrahydropteridine ([…]): The above dry quinoid-dihydropteridine was reduced in near quantitative yield by addition of 0.5 M 2-mercaptoethanol at room temperature, such that the final concentration of product was approximately 10 mM (an almost saturated solution at neutral pH). To obtain the pure dihydrochloride salt, this solution was rotary evaporated to an oil which was dissolved in 2M HCl in methanol and 4 volumes of ethyl ether added, and the precipitate collected by centrifugation and washed twice by resuspension in fresh ethyl ether, followed by centrifugation.

[12] = substrate produced by Bromine oxidation
[13] = substrate produced by Phe hydroxylase + phe

## CC1(C)CNC2=NC(N)=NC(=O)C2=N1 [Quinoid-6,6-Me2PH2, 2-Amino-6,6-dimethyl-4-hydroxyquinoid-dihydropteridine]
[1]
  inhibition of purified phenylalanine hydroxylase: No inhibition
[2]; with NADH
  rate of reduction (k): 11 M⁻¹ s⁻¹
[2]; with NADPH
  rate of reduction (k): 11 M⁻¹ s⁻¹
[2]; with absorbic acid
  rate of reduction (k): 11 M⁻¹ s⁻¹
[2]; with cysteine
  rate of reduction (k): 2.67 M⁻¹ s⁻¹
[3]
  stability relative to the quinoid forms of 6-methyldihydropterin or dihydrobiopterin: one to two orders of magnitude more stable
[3]; 0.1 m tris-hcl, air, pH 7.4, pH 7.4 (0.1 M Tris·HCl), 27°C, air, read-out: t 1/2 (converted)
  half-life: 4 h
[3]; 0.1 m tris-hcl, air, pH 7.4, pH 7.4 (0.1 M Tris·HCl), 37°C, air, read-out: t 1/2 (converted)
  half-life: 1.25 h
[3]; 0.1 m tris-hcl, argon, pH 7.4, pH 7.4 (0.1 M Tris·HCl), 37°C, argon, read-out: t 1/2 (converted)
  half-life: 1.25 h
[3]; 1n hcl, air, pH 0, pH 0 (1N HCl), 37°C, air, read-out: t 1/2 (converted)
  half-life: 0.75 h
[3]; 1n hcl, argon, pH 0, pH 0 (1N HCl), 37°C, argon, read-out: t 1/2 (converted)
  half-life: 0.75 h
[3]; aerated (CH3)2SO at -80°C
  half-life: several weeks
[3]; dmso, aerated (CH3)2SO at ambient temperature, read-out: half-life (converted)
  half-life: ~48 h
[3]; in contrast to quinoid dihydropterin monosubstituted at C6
  rearrangement to a 7,8-dihydropterin: does not appear to rearrange to a 7,8-dihydropterin
[3]; pH 6.8 (Tris-MES 0.1M), 0°C (on ice), air
  t 1/2: 104 h
[3]; stored desiccated for several months at -80°C
  storage stability of the dry powder: no detectable change
[3]; tris-mes 0.1 m, air, pH 6.8, pH 6.8 (Tris-MES 0.1M), 0°C (on ice), air, read-out: t 1/2 (converted)
  half-life: > 100 h
[4]
  pKa: 5.15 ± 0.05
[5]; [12]
  Relative Vmax Beef: 1
[5]; substrate produced by Peroxidase + H2O2
  Relative Vmax Beef: 1
[5]; [13]
  Relative Vmax Beef: 1
[6]; [12]
  Relative Vmax Sheep: 1
[6]; [13]
  Relative Vmax Sheep: 1

## C[C@H](O)C(=O)C1=Nc2c(nc(N)[nH]c2=O)NC1 [sepiapterin]
[7]
  effect on neurological symptoms: shown to have an effect
[8]
  time normal levels of phenylalanine were maintained: 24 h

## Nc1nc2c(c(=O)[nH]1)NC(c1ccccc1)CN2 (stereo not shown) [Compound 6-Phenyl-PH4, 6-phenyltetrahydropterin]
[9]
  increase of Vmax compared to tetrahydrobiopterin: 10 fold
[10]
  decrease of Vmax compared to tetrahydrobiopterin: 10 fold

## CC1(c2ccccc2)CNc2nc(N)nc(O)c2N1 (stereo not shown) [6-Phenyl-6-Methyl-PH4, 2-Amino-4-hydroxy-6-methyl-6-phenyl-5,6,7,8-tetrahydropteridine]
[11]
  solubility: ~10 mM (≈ 2570 µg/mL)
